From ChEMBL document CHEMBL5465560, “Selectivity Literature for EUbOPEN Chemogenomic Library” (2024) come the findings set out here.

In experiment [1] the target is Calcium/calmodulin-dependent protein kinase type 1D (Homo sapiens) (UniProt Q8IU85). The experiment is described as follows: Selectivity interaction (KinomeScan (DiscoverX)) EUB0001619a CAMK1D. The conditions noted are these: at 1 µM.
For experiment [2], the target named is Tyrosine-protein kinase CSK (Homo sapiens) (UniProt P41240). The experiment is described as follows: Selectivity interaction (KinomeScan (DiscoverX)) EUB0000666a CSK. The settings on record: at 10 µM.
Experiment [3] in a line: Selectivity interaction (KinomeScan (DiscoverX)) EUB0000607a CDK2H. The conditions noted are these: at 10 µM.
The target of experiment [4] is T1, Serine/threonine-protein kinase ULK1 (Homo sapiens) (UniProt O75385).
T1 sequence (whole entry): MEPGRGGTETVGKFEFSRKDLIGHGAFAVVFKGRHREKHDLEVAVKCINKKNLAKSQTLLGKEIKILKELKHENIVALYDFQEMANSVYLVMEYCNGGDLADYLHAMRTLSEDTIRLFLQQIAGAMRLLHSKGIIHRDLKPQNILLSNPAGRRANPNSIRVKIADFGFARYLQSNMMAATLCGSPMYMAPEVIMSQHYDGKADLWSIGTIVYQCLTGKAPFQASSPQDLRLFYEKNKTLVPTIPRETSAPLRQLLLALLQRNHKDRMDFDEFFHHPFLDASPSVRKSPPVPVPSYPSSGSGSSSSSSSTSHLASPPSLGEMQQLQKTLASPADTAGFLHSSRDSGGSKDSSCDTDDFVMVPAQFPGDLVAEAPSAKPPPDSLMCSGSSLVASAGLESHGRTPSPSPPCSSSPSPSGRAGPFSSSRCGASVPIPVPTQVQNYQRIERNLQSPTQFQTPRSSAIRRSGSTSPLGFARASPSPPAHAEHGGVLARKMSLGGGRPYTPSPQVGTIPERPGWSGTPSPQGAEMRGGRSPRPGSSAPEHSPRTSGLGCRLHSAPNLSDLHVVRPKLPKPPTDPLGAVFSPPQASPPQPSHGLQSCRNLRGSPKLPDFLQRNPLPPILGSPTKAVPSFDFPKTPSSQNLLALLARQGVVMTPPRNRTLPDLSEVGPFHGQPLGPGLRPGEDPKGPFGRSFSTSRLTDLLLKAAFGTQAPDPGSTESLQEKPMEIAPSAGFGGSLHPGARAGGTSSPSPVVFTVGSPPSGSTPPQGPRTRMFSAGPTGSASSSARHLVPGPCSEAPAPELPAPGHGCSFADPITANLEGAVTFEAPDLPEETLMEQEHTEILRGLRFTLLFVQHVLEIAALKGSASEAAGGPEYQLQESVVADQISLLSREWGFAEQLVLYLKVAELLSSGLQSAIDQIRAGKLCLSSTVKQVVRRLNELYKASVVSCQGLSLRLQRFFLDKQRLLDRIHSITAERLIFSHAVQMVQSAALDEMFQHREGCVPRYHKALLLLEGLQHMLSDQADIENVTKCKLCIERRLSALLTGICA
The experiment is described as follows: Selectivity interaction (ActivX KiNativ screen (kinase selectivity in THP-1 cell lysates)) EUB0000639a ULK1. The format is subcellular. The conditions noted are these: lysate.

For experiment [5], the target named is Serine/threonine-protein kinase 32A (Homo sapiens) (UniProt Q8WU08). The experiment is described as follows: Selectivity interaction (KinomeScan (DiscoverX)) EUB0000045b STK32A.
Experiment [6] deals with Serine/threonine-protein kinase pim-1 (Homo sapiens, UniProt P11309). The experiment is described as follows: Selectivity interaction (Kinase panel (literature)) EUB0001199aCl PIM1. The settings on record: at 1 µM.
Experiment [7] addresses 5-hydroxytryptamine receptor 1B (Homo sapiens) (UniProt P28222). Nature of the experiment: Selectivity interaction (Safety Panel 44tm (Eurofins)) EUB0000162b HTR1B. The conditions noted are these: at 10 µM.
For experiment [8], the target named is Wee1-like protein kinase (Homo sapiens) (UniProt P30291). The experiment is described as follows: Selectivity interaction (KinomeScan (DiscoverX)) EUB0000618a WEE1. The settings on record: at 10 µM.
Experiment [9] addresses T2, Eukaryotic translation initiation factor 2-alpha kinase 3 (Homo sapiens) (UniProt Q9NZJ5).
T2 sequence (whole entry): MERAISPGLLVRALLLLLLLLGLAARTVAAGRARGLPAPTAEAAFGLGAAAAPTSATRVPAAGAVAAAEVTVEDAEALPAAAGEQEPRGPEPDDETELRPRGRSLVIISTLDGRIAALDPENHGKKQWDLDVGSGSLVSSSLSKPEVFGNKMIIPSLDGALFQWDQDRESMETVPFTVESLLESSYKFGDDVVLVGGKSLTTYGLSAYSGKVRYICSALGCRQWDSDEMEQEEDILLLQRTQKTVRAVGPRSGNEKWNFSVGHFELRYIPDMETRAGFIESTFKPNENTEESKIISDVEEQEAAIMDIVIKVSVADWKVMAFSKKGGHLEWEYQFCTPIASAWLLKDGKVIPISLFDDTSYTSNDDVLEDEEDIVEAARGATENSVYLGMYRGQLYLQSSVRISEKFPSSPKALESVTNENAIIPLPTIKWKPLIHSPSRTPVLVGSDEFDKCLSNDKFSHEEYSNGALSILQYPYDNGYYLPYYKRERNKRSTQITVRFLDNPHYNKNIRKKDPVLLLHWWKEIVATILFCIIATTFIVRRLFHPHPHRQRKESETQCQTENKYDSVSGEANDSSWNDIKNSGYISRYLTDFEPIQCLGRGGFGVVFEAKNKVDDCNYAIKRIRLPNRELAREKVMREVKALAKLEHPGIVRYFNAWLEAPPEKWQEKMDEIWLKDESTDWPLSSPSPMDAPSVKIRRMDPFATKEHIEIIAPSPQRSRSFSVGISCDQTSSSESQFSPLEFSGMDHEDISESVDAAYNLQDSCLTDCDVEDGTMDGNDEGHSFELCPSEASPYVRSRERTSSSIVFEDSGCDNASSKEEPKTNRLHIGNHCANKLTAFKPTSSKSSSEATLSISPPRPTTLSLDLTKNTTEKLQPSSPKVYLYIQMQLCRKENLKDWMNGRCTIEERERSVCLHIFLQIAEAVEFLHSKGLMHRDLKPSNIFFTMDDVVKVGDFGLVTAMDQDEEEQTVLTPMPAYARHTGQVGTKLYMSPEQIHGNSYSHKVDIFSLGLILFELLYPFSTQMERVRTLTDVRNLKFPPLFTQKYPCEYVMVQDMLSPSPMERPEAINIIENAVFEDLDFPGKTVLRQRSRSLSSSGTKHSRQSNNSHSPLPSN
The experiment is described as follows: Selectivity interaction (Kinase panel (KiNativ target engagement assay in Jurkat cells)) EUB0001635a EIF2AK3. It counts as cell-based. The conditions noted are these: Selectivity number of off-targets 0.0, Selectivity number of targets 233.0, Source Knowledge https://www.sciencedirect.com/science/article/pii/S2451945619300674?via%3Dihub, at 1 µM.

Chain of Serine/threonine-protein kinase 32A (Homo sapiens) (Q8WU08 whole entry): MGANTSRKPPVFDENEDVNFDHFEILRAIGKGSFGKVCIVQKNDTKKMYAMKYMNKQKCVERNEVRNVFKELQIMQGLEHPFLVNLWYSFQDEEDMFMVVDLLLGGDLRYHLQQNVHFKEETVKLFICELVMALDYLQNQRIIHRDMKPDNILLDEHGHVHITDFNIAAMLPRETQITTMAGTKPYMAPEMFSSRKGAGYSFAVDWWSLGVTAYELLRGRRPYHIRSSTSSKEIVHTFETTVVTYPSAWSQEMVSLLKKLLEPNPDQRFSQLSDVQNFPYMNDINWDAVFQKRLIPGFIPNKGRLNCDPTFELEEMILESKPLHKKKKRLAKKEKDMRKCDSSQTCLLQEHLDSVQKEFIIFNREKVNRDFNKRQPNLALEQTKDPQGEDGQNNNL
Chain of Calcium/calmodulin-dependent protein kinase type 1D (Homo sapiens) (Q8IU85 whole entry, looked up): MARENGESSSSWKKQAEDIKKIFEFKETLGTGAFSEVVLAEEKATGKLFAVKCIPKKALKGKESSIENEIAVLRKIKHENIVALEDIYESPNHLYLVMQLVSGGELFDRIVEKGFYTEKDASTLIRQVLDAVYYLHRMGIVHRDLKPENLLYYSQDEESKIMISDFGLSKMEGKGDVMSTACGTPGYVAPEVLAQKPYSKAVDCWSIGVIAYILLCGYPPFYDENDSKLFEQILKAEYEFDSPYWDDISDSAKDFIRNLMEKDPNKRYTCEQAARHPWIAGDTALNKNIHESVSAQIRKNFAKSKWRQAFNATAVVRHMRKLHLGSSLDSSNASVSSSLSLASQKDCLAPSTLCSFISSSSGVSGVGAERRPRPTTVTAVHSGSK
Chain of Tyrosine-protein kinase CSK (Homo sapiens) (P41240 2-450 limits assumed): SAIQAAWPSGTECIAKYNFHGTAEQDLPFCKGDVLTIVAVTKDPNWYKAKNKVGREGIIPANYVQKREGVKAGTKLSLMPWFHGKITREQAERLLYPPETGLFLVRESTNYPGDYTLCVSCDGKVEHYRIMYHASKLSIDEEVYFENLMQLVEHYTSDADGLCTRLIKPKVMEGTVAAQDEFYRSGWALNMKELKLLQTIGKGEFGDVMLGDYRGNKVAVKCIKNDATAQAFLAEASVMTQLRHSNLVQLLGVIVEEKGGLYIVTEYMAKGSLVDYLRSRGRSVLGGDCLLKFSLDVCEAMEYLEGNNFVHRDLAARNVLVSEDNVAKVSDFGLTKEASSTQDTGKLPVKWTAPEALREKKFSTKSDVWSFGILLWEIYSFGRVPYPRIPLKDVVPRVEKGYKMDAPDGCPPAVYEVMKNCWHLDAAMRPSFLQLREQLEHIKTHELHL
Chain of Wee1-like protein kinase (Homo sapiens) (P30291 whole entry, looked up): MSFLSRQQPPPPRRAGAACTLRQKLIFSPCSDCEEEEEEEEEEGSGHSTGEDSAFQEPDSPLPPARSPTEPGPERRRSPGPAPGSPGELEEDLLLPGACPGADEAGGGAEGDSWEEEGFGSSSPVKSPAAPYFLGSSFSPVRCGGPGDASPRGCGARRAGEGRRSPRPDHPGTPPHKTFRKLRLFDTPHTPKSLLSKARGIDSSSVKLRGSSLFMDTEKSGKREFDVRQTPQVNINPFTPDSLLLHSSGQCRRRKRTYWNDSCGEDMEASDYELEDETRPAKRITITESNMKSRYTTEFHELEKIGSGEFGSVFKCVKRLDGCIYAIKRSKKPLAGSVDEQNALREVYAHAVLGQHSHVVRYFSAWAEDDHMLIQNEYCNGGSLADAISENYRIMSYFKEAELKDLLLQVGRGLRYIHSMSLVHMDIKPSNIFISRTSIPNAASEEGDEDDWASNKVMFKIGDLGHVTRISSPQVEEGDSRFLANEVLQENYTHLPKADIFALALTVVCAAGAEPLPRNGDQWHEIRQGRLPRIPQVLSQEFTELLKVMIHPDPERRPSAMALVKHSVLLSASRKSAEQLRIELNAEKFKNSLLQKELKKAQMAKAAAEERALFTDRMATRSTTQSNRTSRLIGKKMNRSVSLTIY
Chain of 5-hydroxytryptamine receptor 1B (Homo sapiens) (P28222 whole entry): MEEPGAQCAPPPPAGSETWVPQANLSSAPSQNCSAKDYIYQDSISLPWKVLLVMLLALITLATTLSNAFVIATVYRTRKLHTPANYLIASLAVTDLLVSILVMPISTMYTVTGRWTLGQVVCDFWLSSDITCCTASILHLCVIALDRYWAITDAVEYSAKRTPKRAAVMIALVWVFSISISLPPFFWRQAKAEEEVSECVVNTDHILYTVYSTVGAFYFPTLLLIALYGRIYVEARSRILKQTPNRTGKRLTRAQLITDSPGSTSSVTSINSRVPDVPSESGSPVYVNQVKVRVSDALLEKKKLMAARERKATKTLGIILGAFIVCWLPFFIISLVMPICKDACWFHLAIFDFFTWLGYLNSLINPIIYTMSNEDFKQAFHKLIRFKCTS
Chain of Serine/threonine-protein kinase pim-1 (P11309 whole entry, looked up): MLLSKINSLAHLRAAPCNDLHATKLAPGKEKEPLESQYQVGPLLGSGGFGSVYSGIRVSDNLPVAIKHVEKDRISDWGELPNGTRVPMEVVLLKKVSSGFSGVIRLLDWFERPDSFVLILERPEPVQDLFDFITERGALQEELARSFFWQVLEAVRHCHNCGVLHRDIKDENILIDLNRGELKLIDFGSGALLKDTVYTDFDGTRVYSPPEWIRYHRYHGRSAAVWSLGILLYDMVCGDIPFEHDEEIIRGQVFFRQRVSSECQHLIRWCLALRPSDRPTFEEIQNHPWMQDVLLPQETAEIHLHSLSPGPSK

For `N#Cc1cccc(-c2c[nH]c3ncnc(N4CCOCC4)c23)c1`, the % of control in experiment [1] was determined as 88%.

Regarding `O=C(NOC[C@H](O)CO)c1ccc(F)c(F)c1Nc1ccc(I)cc1F`, the % of control in experiment [2] was determined as 100%.

The compound `CNC(=O)Nc1ccc(-c2nc(N3CC4CCC(C3)O4)c3cnn(C4CCC5(CC4)OCCO5)c3n2)cc1` displayed a % of control in experiment [3] of 100%.

As to `CC[C@@H]1[C@H](F)C(=O)N[C@@H]1COc1nccc2cc(C(N)=O)c(OC)cc12` [ZIMLOVISERTIB], the % of inhibition is 4.8% in experiment [4] (at 0.01 µM); 4.1% in experiment [4] (at 0.04 µM); 6.2% in [4] (at 0.2 µM); -18.5% in [4] (at 1 µM); 8% in [4] (at 5 µM).

For `C=CC(=O)Nc1cc(-n2c(=O)ccc3cnc4ccc(-c5ccc(NS(C)(=O)=O)cc5)cc4c32)ccc1C`, the % of control in [5] (at 1 µM) and in experiment [5] (at 10 µM) was 100% each time.

Turning to `CN1Cc2nccc(-c3cn(C)nc3-c3ccc(F)cc3)c2C1=O`, the % of inhibition in experiment [6] is 4%.

As for `CN(C)C(=O)Cn1cc(-c2ccc(-c3cncc4ccccc34)cc2)cn1`, in [7], the % of control turned out to be 53%.

Take `O[C@H]1CC[C@H](Nc2ncc3nc(Nc4c(F)cc(F)cc4F)n([C@H]4CCOC4)c3n2)CC1`: the % of control in experiment [8] is 100%.

For the compound `C=CC(=O)Nc1ccc(C(=O)Nc2[nH]nc3c2CN(C(=O)N[C@H](CN(C)C)c2ccccc2)C3(C)C)cc1`, the % of engagement in experiment [9] was -7.7%.
